Test results reported in patent US9200082B2, “Methods and compositions involving fibrillizing polypeptides for nanofibers” (The University of Chicago, priority 2013, dated 2015).

Columns and labels:
Q11 microgels = assay: Q11 microgel fluorescence microscopy
Experimental: Lyophilized Q11 was dissolved in deionized water at a final concentration of 10 mM by vortexing for 5 min. Aqueous Q11 solutions were diluted 10-fold with 1×PBS containing GFP (Vector Labs cat# MB-0752), βTmutant-GFP, or one or more βTail fusion proteins at a total protein concentration between 0.25-1.5 μM, or tryptophan-terminated βTail (W-βTail) at a concentration between 10-100 μM. These solutions were then incubated under static conditions for nanofiber assembly, or on a LabNet Rocker 35 rocker table (speed setting 4) (New Jersey) to induce microgel formation.
Q11 microgel fluorescence was analyzed using a Zeiss Axioscope inverted epifluorescent microscope. Dapi filters were used to visualize βTail-GFPuv; FITC filters were used to visualize βTail-eGFP; and TRITC filters were used to visualize βTail-dsRED. Fluorescence emission of any protein with the inappropriate filter (e.g. βTail-GFPuv with FITC) was negligible (FIG. 5). Due to differences in the quantum efficiency of each protein, exposure time was adjusted until the grayscale image intensity of microgels containing 0.33 μM βTail-GFP, βTail-eGFP, or βTail-dsRED alone was similar (e.g. 0.75 sec for βTail-GFP, 1.5 sec for βTail-eGFP, and 2.5 sec for βTail-dsRED). […]

C57BL/6 mice = assay: Immunization, anti-GFP Ig isotyping ELISA; type: in vivo; conditions: after primary and booster immunizations, serum week 7
Experimental: Q11 microgels bearing βTail-GFP or βTail-cut were prepared as described above, except the materials were incubated at 4 deg C., rather than room temperature. GFP content in the microgels was analyzed fluorimetrically as described above, and the concentration of GFP in the microgels was used as the basis for βTail-GFP dose in the PBS group. Similarly, cutinase content in the microgels was analyzed with the μABCA assay kit (Pierce), according to the manufacturer's instructions, and βTail-cut dose in the microgels was used as the basis for βTail-cut dose in PBS group. Endotoxin content of all vaccines was analyzed with the Limulus Amoebocyte Lysate assay kit (Lonza) according to the manufacturer's instructions immediately before immunization, and all materials were below the upper limit of 1 EU/mL. Female C57BL/6 mice (6-8 weeks old, Taconic Farms, Ind.) were each given two 50 μL subcutaneous injections near the shoulder blades for each primary and booster immunization, similar to previously reported methods (Hudalla 2013). […]
For all isotyping ELISAs, following overnight coating with 1 μg/mL βTmutant-GFP in PBS or PBS, all plates were washed 3 times with 0.5% Tween-20 in PBS. […] Absorbance was then measured at 450 nm with a SpectraMax M5 plate reader.

βTail-GFP: recombinant fusion of βTail, Gly-Ser linker, GFPuv and His6 expressed in E. coli; SEQ ID NO. 65
fluorescence (activity) after integration into Q11 nanofibers (Q11 microgels): fluorescence was not perturbed when integrated into Q11 nanofibers
serum Ig isotype profile (C57BL/6 mice): a more balanced IgM/IgG1 isotype profile
